Data reported in patent publication US8247613B2, “Methods and compositions for the synergistic activation of latent HIV” (The J. David Gladstone Institutes, priority 2006, dated 2012).

Columns and labels:
latent HIV expression = details: more potent than prostratin; cited from earlier work
[1] = test system: latent HIV expression in J-Lat 6.3 cells; test: HIV-LTR-driven expression of GFP (flow cytometry) in J-Lat 6.3 cells; type: cell-based; details: 16 hours; for activation of latent HIV expression (GFP-positive cells): J-Lat 6.3 cells
Description: (§1) J-Lat 6.3, J-Lat 8.4 T-cells, and J-Lat 9.2 cells are Jurkat T cell lines containing integrated but transcriptionally latent HIV proviruses. These J-Lat cells contain wild-type Tat and TAR and appear to be highly representative of the latently infected cells present in vivo (Williams et al., 2004, J Biol Chem 279(40):42008-42017).
(§2) J-Lat 6.3 T cells, J-Lat 8.4 T-cells and J-Lat 9.2 T cells were obtained from Jordan et al., (Jordan et al., 2003, EMBO J 22(8):1868-1877). J-Lat cells were cultured in RPMI supplemented with 10% fetal calf serum (FCS) and penicillin/streptomycin and L-glutamine described (Williams et al., 2004, J Biol Chem 279(40):42008-42017; Williams et al., 2006, EMBO J 25:139-149).
(§3) The J-Lat T-cell clones used herein are infected with full-length HIV proviruses and contain the Aequorea victoria green fluorescent protein (GFP) gene in lieu of Net thus permitting epifluorescence monitoring of viral transcriptional activity. Under basal conditions, little or no GFP expression is detected; however, transcriptional activation of the latent provirus leads to GFP expression, which can be detected at the single-cell level by flow cytometry. Flow cytometry analysis and FACS was essentially performed as described (Williams et al., 2004, J Biol Chem 279(40):42008-42017).
(§4) Cells were analyzed for GFP-fluorescence and general viability characteristics on a FACSCalibur flow cytometer (Becton Dickinson). Data were analyzed with FlowJo (Treesoft) flow cytometry analysis software.
(§5) J-Lat 6.3 and 8.4 T-cells cultured in RPMI supplemented with 10% fetal calf serum (FCS) and penicillin/streptomycin were counted and adjusted to 1×10^6 cells/ml. 80 μl aliquots of J-Lat 6.3 and 8.4 T-cells, respectively, were pipetted in a 96-well u-bottomed plate. […] Then HIV-LTR-driven expression of GFP was assessed by flow cytometry using a Beckton Dickenson FACScalibur as described above. […] Cells with greater GFP fluorescence than a non-GFP expressing Jurkat control cells were considered GFP-positive.

[2] = test system: latent HIV expression in J-Lat 8.4 T-cells; test: HIV-LTR-driven expression of GFP (flow cytometry) in J-Lat 8.4 T-cells; type: cell-based; details: 16 hours; for activation of latent HIV expression (GFP-positive cells): J-Lat 8.4 T-cells
Description: as §1, §2, §3, §4, §5

[3] = test system: latent HIV expression in J-Lat6.3kRed2 cells; type: cell-based
Description: In a similar experiment, J-Lat6.3kRed2 cells, a modified cell line derived from J-Lat6.3 containing an integrated kB-DsRed2 reporter, was used. J-Lat6.3kRed2 cells were counted and adjusted to 1×10^6 cells/ml. 80 μl aliquots were pipetted in a 96-well u-bottomed plate. Two-fold serial dilutions of 4, 2, and 1 μM trichostatin A (TSA) were made and added to the cells at final concentrations of 400 nM, 200 nM, and 100 nM, respectively. Three-fold serial dilutions of 100, 33, 11, 3.7 μM prostratin were made and added to cells at final concentrations of 10 μM, 3.3 μM, 1.1 μM, and 0.37 μM (0.4 μM in FIG. 1C), respectively. Samples were mixed by pipetting, returned to a 37° C. incubator with 5% CO2 and 90% humidity for 20 hours, HIV-LTR-driven expression of GFP was assessed by flow cytometry as described above.
In order to test a possible synergistic effect of additional histone deacetylase inhibitors, the effect of valproic acid in combination with prostratin was analyzed. J-Lat6.3kRed2 cells were adjusted to 1×10^6 cells/ml. 80 μl cell aliquots were pipetted in a 96-well u-bottomed plate. […] HIV-LTR-driven expression of GFP was assessed by flow cytometry as described above.

J-Lat 6.3 cells = test: Cell viability assay (flow cytometry light scatter), J-Lat 6.3 cells; type: cell-based
Description: (§6) Following stimulation, cells were cultured for 16 hours at 37° C. 90% humidity, 5% CO2. Cells were then analyzed by flow cytometry for viability.
(§7) Cells were scored as viable if they were detected in a characteristically “live” region of light scatter and defraction as measured by flow cytometry.
(§8) As described herein, it is known in the art that high concentrations of prostratin exert some toxic effects on cells. Thus, using the same experimental set-up as described in Example 2, above, cell viability was determined. Cell viability were quantitated as described above. Using J-Lat 6.3 cells and 8.4 T-cells, it was observed that 2 μM prostratin induced cell death in about 50% of the cells. […] In this experiment, cells were incubated with prostratin for about 20 hours, whereas J-Lat 6.3 cells and 8.4 T-cells (in FIGS. 2A and 2B) were incubated with prostratin for 36 hours.

J-Lat 8.4 T-cells = test: Cell viability assay (flow cytometry light scatter), J-Lat 8.4 T-cells; type: cell-based
Description: as §6, §7, §8

J-Lat6.3kRed2 cells = test: Cell viability assay (flow cytometry light scatter), J-Lat6.3kRed2 cells; type: cell-based
Description: as §6, §7, §8
As described in Example 3 for TSA, the effect of valproic acid on blocking prostratin-induced cell death was analyzed using the same experimental set-up as described in Example 4.

[4] = test system: latent HIV expression in J-Lat 6.3 cells; test: Tat transfection assay, latent HIV-driven GFP expression in J-Lat 6.3 cells; type: cell-based; details: for effect on Tat-induced latent HIV-driven expression of GFP: coadministration with Tat (FLAG-Tat transfected cells), 16 hours, J-Lat 6.3 cells (FIG. 5)
Description: 10^6 J-Lat 6.3 cells cultured in RPMI+10% fetal calf serum (FCS) and penicillin/streptomycin were pelleted by centrifugation and resuspended in 0.4 mL RPMI without serum. Cell suspension was mixed with 1 μg of pMACS-kk H2kk expression vector DNA (Miltenyi), and 10 μg of pCMV4 (Andersson et al., 1989, J Biol Chem 264 (14):8222-8229), or 10 μg pCMV4-FLAG-Tat expression vector (gift of Eric Verdin), transferred to a 0.4 cm gap electroporation cuvette (Stratagene), and electroporated at 975 μF, […] for ˜25×10^−3 seconds. Electroporated cells were resuspended in 4 mL medium, and returned to cell culture for 48 hours. 90 μl aliquots of each sample were distributed to U-bottomed 96-well plates and 10 μl of 200 ng/mL TNF-α (Biosource), 10 μl of 1 mM Trichostatin A (Biomol), or 10 μl of RPMI. For 30′-pulse TNF-α stimulation experiments, 10 μl of 200 ng/mL TNF-α was added to 90 μl cell suspension for 30 minutes, cells were transferred to a V-bottomed 96 well plate and centrifuged at […] for 3 minutes. Supernatant was removed and replaced, and procedure was repeated 2×. Cells were resuspended in 100 μl fresh RPMI with 10% serum and penicillin/streptomycin. 16 hours after treatment, cells were pelleted by centrifugation, and resuspended in 50 μl PBS+1:100 dilution of streptavidin-conjugated anti-H2kk antibody. Samples were incubated 10 minutes, diluted in 200 μl PBS, pelleted by centrifugation, and supernatant removed. […] Samples were analyzed by flow cytometry using a Beckton Dickinson FACSCalibur. Cells were analyzed using FlowJo (TreeSoft) flow cytometry analysis software. Live cells were identified by characteristic light scatter and defraction and exclusively analyzed. Cells with APC fluorescence greater that untransfected cells stained with biotin-APC were considered to be H2kk-positive, and to have been successfully transfected. […]

[5] = test system: latent HIV expression in J-Lat 9.2 cells; test: Tat transfection assay, latent HIV-driven GFP expression in J-Lat 9.2 cells; type: cell-based; details: FLAG-Tat transfected J-Lat 9.2 cells (FIG. 6); result similar to Example 6
[6] = concentration of >500 nM for more than 2 days; cited from earlier work
[7] = cited from earlier work
[8] = co-administration of 100 nM TSA with 2 μM prostratin

CC1=C[C@H]2[C@@]3(O)[C@H](C)C[C@]4(OC(=O)Cc5ccccc5)C([C@@H]3C=C(CO)C[C@]2(O)C1=O)C4(C)C (stereo partly shown) [DPP, 12-deoxyphorbol 13-phenylacetate]
potency relative to prostratin (latent HIV expression): 20-40 fold

CC(/C=C/C(=O)NO)=C\[C@@H](C)C(=O)c1ccc(N(C)C)cc1 [TSA, [R-(E,E)]-7-[4-(Dimethylamino)phenyl]-N-hydroxy-4,6-dimethyl-7-oxo-2,4-heptadienamide]
activation of latent HIV expression (GFP-positive cells) ([1]; TSA 100 nM administered alone): no significant effect | potentiation of the effect of prostratin on latent HIV expression ([1]; TSA 100 nM with prostratin 2 μM, J-Lat 6.3 cells (FIG. 1A)): 5-6 fold | activation of latent HIV expression (GFP-positive cells) ([2]; TSA 100 nM administered alone): no significant effect | potentiation of the effect of prostratin on latent HIV expression ([2]; TSA 100 nM with prostratin 2 μM, J-Lat 8.4 T-cells (FIG. 1B)): 6-7 fold | synergistic effect on activation of latent HIV expression ([3]; 370 (400) nM TSA in combination with 0.4 μM prostratin, 20 hours, J-Lat6.3kRed2 cells (FIG. 1C)): about 16 fold | effect on the activation of latent HIV expression ([3]; TSA 100-400 nM with prostratin 0.37-10 μM, 20 hours, J-Lat6.3kRed2 cells): drastic effect | effect on prostratin-induced cell death (J-Lat 6.3 cells; [8]): almost completely inhibited | effect on prostratin-induced cell death (J-Lat 8.4 T-cells; [8]): almost completely inhibited | effect on prostratin-induced cell death (J-Lat6.3kRed2 cells; TSA with prostratin up to 10 μM, about 20 hours, J-Lat6.3kRed2 cells (FIG. 2C)): inhibited prostratin-induced cell death | effect on Tat-induced latent HIV-driven expression of GFP [4]: strongly enhanced | activation of expression of latent HIV (GFP) together with Tat [5]: Synergizes with Tat

CC(=O)O[C@@]12C[C@@H](C)[C@@]3(O)[C@@H](C=C(CO)C[C@]4(O)C(=O)C(C)=C[C@@H]34)[C@@H]1C2(C)C [prostratin, 12-deoxyphorbol 13-acetate]
activation of latent HIV expression (GFP-positive cells) ([1]; prostratin 2 μM alone): induced the activation of latent HIV expression | activation of latent HIV expression (GFP-positive cells) ([2]; prostratin 2 μM alone): induced the activation of latent HIV expression | prostratin-induced cell death (cells) (J-Lat 6.3 cells; 2 μM prostratin, incubated 36 hours (FIG. 2A)): about 50% | prostratin-induced cell death (cells) (J-Lat 8.4 T-cells; 2 μM prostratin, incubated 36 hours (FIG. 2B)): about 50% | toxicity (growth arrest and cell death) [6]: substantial growth arrest and cell death

CCCC(CCC)C(=O)O [valproic acid, 2-propylpentanoic acid]
potentiation of the effect of prostratin on latent HIV expression ([3]; valproic acid 0.3 mM with prostratin 0.37 μM, 18 hours, J-Lat6.3kRed2 cells (FIG. 3)): 6-7 fold | effect on prostratin-induced cell death (J-Lat6.3kRed2 cells; valproic acid at all tested concentrations (0.3-3 mM), prostratin 10 μM, J-Lat6.3kRed2 cells (FIG. 4)): blocked prostratin-induced cell death | time of peak serum levels ([7]; after a single oral dose): 1 to 4 h | serum half-life ([7]; in vivo): 6 to 16 h | absorption after oral administration ([7]; oral): rapidly absorbed

TNF-α
expression of latent HIV (GFP) ([4]; 30-minute pulse treatment of TNF-α, without Tat, J-Lat 6.3 cells): weak expression | effect on Tat-induced latent HIV-driven expression of GFP [4]: strongly enhanced | activation of expression of latent HIV (GFP) together with Tat [5]: Synergizes with Tat
